Assay: Experimental stability/excipient compatibility study of prototype formulation
Type: physicochemical
Conditions: with Vitamin E polyethylene glycol succinate and gelatin capsule shell; 25° C./60% RH and 40° C./75% RH over a 1-month period
Source text: A homogeneous solution of Compound I is formed with the Vitamin E polyethylene glycol succinate (TPGS), which enables good uniformity of content to be achieved at low strengths.

SMILES: Cc1c(-c2ccnc(C(F)(F)F)c2)ncn1CC(=O)Nc1ccc(-c2cnccn2)cn1 [Compound I]
- Degradation of Compound I in prototype formulation: No significant degradation
